In general, EC50 refers to the midpoint of the concentration-response curve. As usually defined, the CC50 is the concentration that lowers cell viability or growth by half. One may read the IC50 as the concentration that gives 50% inhibition. For orientation: Kd means the equilibrium constant for the complex coming apart. By solubility is commonly meant how much of the substance goes into solution per volume. Read a high solubility as a readily soluble substance. One may read the half-life as how long it takes for the measured level to halve.

Values after ≈ are worked out from the molar mass of the structure shown.

This note sets out measurements from ChEMBL document CHEMBL5236598, “Lead Optimization and Avoidance of Metabolic-perturbing Motif Developing Novel Diarylpyrimidines as Potent HIV-1 NNRTIs” (J Med Chem, 2022).

In series [1] the test system is Human immunodeficiency virus 1. Description: Antiviral activity against wild type HIV-1 IIIB infected in human MT4 cells assessed as protection against virus-induced cytopathic effect incubated for 5 days by MTT assay. The format is functional, organism-based. The note with it: Human immunodeficiency virus 1, IIIB, MT4, 120 h.
In series [2] the test system is Human immunodeficiency virus 1. Description: Antiviral activity against HIV-1 RES056 harboring RT K103N/Y181C double mutant infected in human MT4 cells assessed as protection against virus-induced cytopathic effect incubated for 5 days by MTT assay. The format is functional, organism-based. The note with it: Human immunodeficiency virus 1, RES056, MT4, 120 h. On the technique in general: Protection from cytopathic effect is a common read-out in antiviral testing.

Series [3] can be described thus: Cytotoxicity against human MT4 cells assessed as reduction in cell viability measured after 5 days by MTT assay. In kind it is toxicity, cell-based. The note with it: time 5 day. In general terms: Tetrazolium assays rely on reduction of a dye to a coloured formazan, in cell work by metabolically active cells.
The nature of series [4]: Selectivity index, ratio of CC50 for cytotoxicity against human MT4 cells to EC50 for antiviral activity against wild type HIV-1 IIIB infected in human MT4 cells. In kind it is toxicity, cell-based. Conditions: read-out: Ratio CC50/EC50.
Series [5] in a line: Selectivity index, ratio of CC50 for cytotoxicity against human MT4 cells to EC50 for antiviral activity against HIV-1 RES056 harboring RT K103N/Y181C double mutant infected in human MT4 cells. In kind it is toxicity, cell-based. Conditions: read-out: Ratio CC50/EC50.
Series [6] relates to Human immunodeficiency virus 1. Description: Antiviral activity against HIV-1 harboring RT L100I mutant infected in human MT4 cells assessed as protection against virus-induced cytopathic effect incubated for 5 days by MTT assay. The note with it: Human immunodeficiency virus 1, MT4, 120 h. In kind it is functional, organism-based.
Series [7] deals with Human immunodeficiency virus 1. Description: Antiviral activity against HIV-1 harboring RT K103N mutant infected in human MT4 cells assessed as protection against virus-induced cytopathic effect incubated for 5 days by MTT assay. In kind it is functional, organism-based. The note with it: Human immunodeficiency virus 1, MT4, 120 h.
In series [8] the test system is Human immunodeficiency virus 1. Description: Antiviral activity against HIV-1 harboring RT Y181C mutant infected in human MT4 cells assessed as protection against virus-induced cytopathic effect incubated for 5 days by MTT assay. The format is functional, organism-based. The note with it: Human immunodeficiency virus 1, MT4, 120 h.
In series [9] the test system is Human immunodeficiency virus 1. Description: Antiviral activity against HIV-1 harboring RT Y188L mutant infected in human MT4 cells assessed as protection against virus-induced cytopathic effect incubated for 5 days by MTT assay. The format is functional, organism-based. The note with it: Human immunodeficiency virus 1, MT4, 120 h.
Series [10] deals with Human immunodeficiency virus 1. Description: Antiviral activity against HIV-1 harboring RT E138K mutant infected in human MT4 cells assessed as protection against virus-induced cytopathic effect incubated for 5 days by MTT assay. In kind it is functional, organism-based. Conditions: Human immunodeficiency virus 1, MT4, 120 h.
Series [11] relates to Human immunodeficiency virus 1. Description: Antiviral activity against HIV-1 harboring RT F227L/V106A double mutant infected in human MT4 cells assessed as protection against virus-induced cytopathic effect incubated for 5 days by MTT assay. In kind it is functional, organism-based. The note with it: Human immunodeficiency virus 1, MT4, 120 h.
The test system of series [12] is Human immunodeficiency virus 1. Description: Potency index, ratio of Etravirine EC50 to test compound EC50 for antiviral activity against HIV-1 harboring RT K103N mutant infected in human MT4 cells assessed as protection against virus-induced cytopathic effect incubated for 5 days by MTT assay. In kind it is functional. Conditions: time 5 day.
In series [13] the test system is Human immunodeficiency virus 1. Description: Potency index, ratio of Etravirine EC50 to test compound EC50 for antiviral activity against HIV-1 harboring RT E138K mutant infected in human MT4 cells assessed as protection against virus-induced cytopathic effect incubated for 5 days by MTT assay. In kind it is functional. Conditions: time 5 day.
In series [14] the target is T1, Human immunodeficiency virus type 1 reverse transcriptase (Human immunodeficiency virus 1, UniProt Q72547). Description: Inhibition of wild type recombinant HIV-1 reverse transcriptase using biotin-labelled dNTPs as substrate assessed as inhibition of biotin-labelled UTP incorporation incubated for 1 hr by ELISA. (In an ELISA, binding on a coated surface is turned into a signal by an enzyme label.)

In series [15] the target is T1, Human immunodeficiency virus type 1 reverse transcriptase. Description: Binding affinity to HIV-1 reverse transcriptase assessed as dissociation constant by SPR analysis.
The nature of series [16]: Aqueous solubility of compound at pH 2 at 0.1 to 10 mg. In kind it is physicochemical. The note with it: aqueous medium, dose 0.1-10 mg.
Series [17] in a line: Aqueous solubility of compound at pH 7 at 0.1 to 10 mg. The format is physicochemical. The note with it: aqueous medium, dose 0.1-10 mg.
The nature of series [18]: Aqueous solubility of compound at pH 7.4 at 0.1 to 10 mg. The format is physicochemical. Conditions: aqueous medium, dose 0.1-10 mg.
Series [19] in a line: Metabolic stability in human liver microsomes assessed as half life preincubated for 10 mins followed by NADPH regenerating system addition and measured after 2 hrs by LC-MS/MS analysis. In kind it is ADME, Microsome. Conditions: time 130 min.

On to `Cc1cc(-c2ccc(F)cc2)cc(C)c1Oc1nc(Nc2ccc(C#N)nc2)nc2ccsc12`, for which the values for the EC50 in [1] and in series [2] were 0.451 µM and above 6.13 µM, respectively. In addition, in [3], the CC50 at 120 h is 6.13 µM. Besides, the selectivity ratio in [4] is 14; in series [5], below 1.
Turning to `Cc1cc(/C=C/C#N)cc(C)c1Oc1nc(Nc2ccc(C#N)nc2)nc2cc[nH]c12`, the results for the EC50 in series [1] and in [2] were 1.63 µM and above 7.94 µM, respectively. In addition, the CC50 at 120 h in series [3] came out at 7.94 µM. Besides, the values for the selectivity ratio in series [4] and in series [5] were 5 and below 1, respectively.
For `Cc1cc(-c2ccc(F)cc2)cc(C)c1Oc1nc(Nc2ccc(C#N)nc2)nc2sccc12`, the EC50 is 0.802 µM in series [1] and above 2.23 µM in series [2]. For the same compound, the CC50 at 120 h in [3] is 2.23 µM. Moreover, the selectivity ratio was 3 in series [4] and below 1 in series [5].
With `Cc1cc(/C=C/C#N)cc(C)c1Oc1nc(Nc2ccc(C#N)c(F)c2)nc2cc[nH]c12`, the EC50 turned out to be 4.47 µM in series [1] and 45.8 µM in series [2]. In addition, the CC50 at 120 h in series [3] was determined as 188 µM. In addition, the selectivity ratio in series [4] came out at 42; in series [5], 4.1.
As for `N#C/C=C/c1cc(F)c(Oc2nc(Nc3ccc(C#N)nc3)nc3ccsc23)c(F)c1`, the EC50 in [1] was 0.00179 µM; in [2], 2.19 µM; in series [6] it was 0.0192 µM; in series [7], 0.00255 µM; in [8], 0.0665 µM; in [9], above 47.5 µM. Further, the concentration for a half-maximal effect (EC50) was determined as 0.00746 µM in series [10] and 1.45 µM in [11]. For the same compound, in series [3], the half-maximal cytotoxic concentration (CC50) at 120 h was 47.5 µM. The selectivity ratio in series [4] turned out to be 26500; in [5], 22. The “Ratio EC50” value in series [12] and in [13] was 2 each time. Besides, the IC50 in series [14] came to 0.04 µM.
In the case of `N#C/C=C/c1cc(F)c(Oc2nc(Nc3ccc(C#N)c(F)c3)nc3c2COC3)c(F)c1`, the EC50 in [1] stood at 0.00167 µM; in series [2], 0.314 µM; in [6], 0.0069 µM; in series [7] it was 0.00241 µM; in series [8], 0.0139 µM; in series [9], 0.214 µM. Besides, the results for the EC50 in series [10] and in series [11] were 0.00345 µM and 0.384 µM, respectively. The CC50 at 120 h in [3] stood at 243 µM. Also, the figures for the selectivity ratio in [4] and in series [5] were 145000 and 773, respectively. The IC50 in series [14] was determined as 0.03 µM.
With `Cc1cc(/C=C/C#N)cc(C)c1Oc1nc(Nc2ccc(C#N)nc2)nc2c1COC2`, the EC50 is 0.0024 µM in [1]; 0.0717 µM in series [2]; 0.00664 µM in [6]; 0.00134 µM in [7]; 0.00975 µM in [8]; 0.0446 µM in series [9]. Also, the EC50 in series [10] was found to be 0.00323 µM; in series [11], 0.11 µM. In addition, the CC50 at 120 h in series [3] came to 213 µM. The selectivity ratio was 88900 in series [4] and 2980 in series [5]. Also, the IC50 in series [14] worked out at 0.04 µM.
Regarding `Cc1cc(-c2ccc(F)cc2)cc(C)c1Oc1nc(Nc2ccc(C#N)c(F)c2)nc2sccc12`, the EC50 in series [1] was 0.583 µM; in series [2], 11.1 µM. Besides, the CC50 at 120 h in series [3] is 28.9 µM. In addition, the results for the selectivity ratio in series [4] and in series [5] were 50 and 2.6, respectively.
`Cc1cc(/C=C/C#N)cc(C)c1Oc1nc(Nc2ccc(C#N)c(F)c2)nc2c1COC2`: the EC50 was found to be 0.00222 µM in series [1]; 0.0533 µM in series [2]; 0.00304 µM in series [6]; 0.00287 µM in series [7]; 0.0102 µM in series [8]; 0.0132 µM in series [9]. The EC50 in [10] came to 0.00977 µM; in series [11], 0.0198 µM. In series [3], the CC50 at 120 h amounted to 45.6 µM. Besides, the results for the selectivity ratio in [4] and in series [5] were 20600 and 857, respectively. Moreover, in [15], the Kd turned out to be 2.5 µM. In series [14], the IC50 is 0.05 µM. For the same compound, the figures for the solubility in series [16], in [17] and in series [18] were 23.1 µg/mL (≈ 54 µM), 12.3 µg/mL (≈ 28.8 µM) and 5.7 µg/mL (≈ 13.3 µM), respectively.
For the compound `N#C/C=C/c1cc(F)c(Oc2nc(Nc3ccc(C#N)c(F)c3)nc3cc[nH]c23)c(F)c1`, the EC50 in [1] worked out at 0.038 µM; in series [2], 0.63 µM. For the same compound, the CC50 at 120 h in [3] amounted to 10.2 µM. Besides, the values for the selectivity ratio in series [4] and in [5] were 268 and 16, respectively.
On the same counts, the results for `N#C/C=C/c1cc(F)c(Oc2nc(Nc3ccc(C#N)nc3)nc3c2COC3)c(F)c1` are 0.00577 µM, 12.2 µM, 243 µM, 42100 and 20.
As for `N#C/C=C/c1cc(F)c(Oc2nc(Nc3ccc(C#N)nc3)nc3cc[nH]c23)c(F)c1`, the figures for the EC50 in series [1] and in series [2] were 0.147 µM and above 29 µM, respectively. For the same compound, the CC50 at 120 h in series [3] worked out at 29 µM. The selectivity ratio in series [4] is 197; in [5], below 1.
Consider `Cc1cc(C#N)cc(C)c1Oc1nc(Nc2ccc(C#N)cc2)nc(N)c1Br` [ETRAVIRINE], for which the EC50 in [1] worked out at 0.0033 µM; in [2], 0.0762 µM; in series [7], 0.0043 µM; in [9], 0.0251 µM; in [10], 0.0181 µM; in [11], 0.0254 µM. Besides, the CC50 at 120 h in series [3] was above 4.61 µM.
`C[C@]12CC[C@H]3[C@@H](CCC4=CC(=O)CC[C@@]43C)[C@@H]1CC[C@@H]2O` [TESTOSTERONE]: the half-life in series [19] was 11.1 min.
